Measured values taken from the NIST ThermoML archive (doi:10.1016/j.jct.2012.02.033).

Legend:
[1] = 101.33 kPa, Liquid, Vibrating tube method
[2] = xn = mol fraction of the nth substance listed; details: 101.3 kPa, Liquid, Vibrating tube method

CCNC=O [N-ethylformamide]
[1]
Details	mass density [kg/m3]
293.15 K	951.59
298.15 K	947.48
303.15 K	943.29
308.15 K	939.04
313.15 K	934.78

CCNC=O [N-ethylformamide] + C1CCOC1
mass density [kg/m3], [2]
Details	x1 = 0.1142	x1 = 0.2142	x1 = 0.3179	x1 = 0.4258	x1 = 0.5219	x1 = 0.6177	x1 = 0.7146	x1 = 0.8111	x1 = 0.9121
293.15 K	896.3	903.1	910.05	917.17	923.35	929.34	935.26	940.88	946.8
298.15 K	890.99	897.92	905.07	912.38	918.66	924.77	930.78	936.53	942.58
303.15 K	885.68	892.77	900.1	907.54	913.98	920.19	926.31	932.18	938.31
308.15 K	880.28	887.57	895.02	902.62	909.25	915.53	921.81	927.84	934.01
313.15 K	874.84	882.2	889.89	897.66	904.45	910.99	917.2	923.35	929.64

CCNC=O [N-ethylformamide] + CCC(C)=O
mass density [kg/m3], [2]
Details	x1 = 0.1242	x1 = 0.2302	x1 = 0.3384	x1 = 0.4407	x1 = 0.5398	x1 = 0.6369	x1 = 0.7317	x1 = 0.8186	x1 = 0.91
293.15 K	826.16	840.95	856.12	870.55	884.78	898.71	912.21	925	938.61
298.15 K	820.91	836.01	851.11	865.71	880.07	894.02	907.71	920.61	934.41
303.15 K	815.8	830.97	846.25	860.93	875.4	889.48	903.31	916.28	930.12
308.15 K	810.54	825.9	841.32	856.14	870.71	884.87	898.84	911.88	925.83
313.15 K	805.22	820.74	836.31	851.26	865.95	880.2	894.3	907.42	921.48

CCNC=O [N-ethylformamide] + CCOC(C)=O
mass density [kg/m3], [2]
Details	x1 = 0.1322	x1 = 0.2514	x1 = 0.3559	x1 = 0.4653	x1 = 0.564	x1 = 0.671	x1 = 0.7544	x1 = 0.8376	x1 = 0.9223
293.15 K	907.89	914.13	919.39	924.91	929.7	935.01	939.27	943.3	947.63
298.15 K	901.99	908.51	914.06	919.68	924.66	930.12	934.56	938.85	943.28
303.15 K	896.06	902.84	908.62	914.51	919.65	925.33	929.93	934.35	938.94
308.15 K	890.09	897.16	903.23	909.29	914.62	920.5	925.29	929.86	934.56
313.15 K	884.03	891.14	897.65	903.98	909.53	915.67	920.55	925.31	930.15

CCC(C)=O [butanone]
[1]
Details	mass density [kg/m3]
293.15 K	808.64
298.15 K	803.24
303.15 K	797.88
308.15 K	792.45
313.15 K	786.94

CCOC(C)=O [ethyl acetate]
[1]
Details	mass density [kg/m3]
293.15 K	900.26
298.15 K	894.14
303.15 K	887.85
308.15 K	881.52
313.15 K	875.14

C1CCOC1 [tetrahydrofuran]
[1]
Details	mass density [kg/m3]
293.15 K	888.73
298.15 K	883.24
303.15 K	877.6
308.15 K	872.02
313.15 K	866.23
